ChEMBL document CHEMBL1153212, “P4 capped amides and lactams as HCV NS3 protease inhibitors with improved potency and DMPK profile” (Bioorg Med Chem Lett, 2010)

Tests used:
[1] = Selectivity for HCV NS4A-tethered single chain NS3 serine protease over human neutrophil elastase
[2] = Inhibition of HCV NS4A-tethered single chain NS3 serine protease by spectrophotometric assay; set-up: species or system Hepacivirus hominis
Hepatitis C virus = experiment: Antiviral activity against HCV assessed as inhibition of viral RNA replication; format: functional, Hepacivirus hominis
[3] = AUC in rat at 10 mg/kg, po; format: ADME, organism-based; set-up: dose 10 mg/kg, route oral; details: plasma

Ki [2] [nM] | EC90 (Hepatitis C virus) [nM] | AUC [3] [µM·h] | SMILES | Ratio [1]
91 |  |  | C=CCNC(=O)C(=O)C(CCC)NC(=O)[C@@H]1[C@@H]2[C@H](CN1C(=O)[C@@H](NC(=O)N[C@@H](CN(C)C(=O)C1CC1)C(C)(C)C)C(C)(C)C)C2(C)C (stereo not given in full) | 280
19 | 80 |  | C=CCNC(=O)C(=O)C(CCCC)NC(=O)[C@@H]1[C@@H]2[C@H](CN1C(=O)[C@@H](NC(=O)N[C@@H](CN1CCC(C)(C)CC1=O)C(C)(C)C)C(C)(C)C)C2(C)C (stereo not given in full) | 850
23000 |  |  | C=CCNC(=O)C(=O)C(CCC)NC(=O)[C@@H]1[C@@H]2[C@H](CN1C(=O)[C@@H](NC(=O)N[C@@H](CN(C)C(=O)C(C)(C)C)C(C)(C)C)C(C)(C)C)C2(C)C (stereo not given in full) | 
89 |  |  | C=CCNC(=O)C(=O)C(CCC)NC(=O)[C@@H]1[C@@H]2[C@H](CN1C(=O)[C@@H](NC(=O)N[C@@H](CN1CCCC(C)(C)C1=O)C(C)(C)C)C(C)(C)C)C2(C)C (stereo not given in full) | 90
5 | 60 | 0.49 | C#CCCC(NC(=O)[C@@H]1[C@@H]2[C@H](CN1C(=O)[C@@H](NC(=O)N[C@@H](CN1CCC(C)(C)CC1=O)C(C)(C)C)C(C)(C)C)C2(C)C)C(=O)C(=O)NCC=C (stereo not given in full) | 210
4.9 | 180 | 0.07 | C=CCNC(=O)C(=O)C(CCC)NC(=O)[C@@H]1[C@@H]2[C@H](CN1C(=O)[C@@H](NC(=O)N[C@@H](CN1CCCNC1=O)C(C)(C)C)C(C)(C)C)C2(C)C (stereo not given in full) | 360
17 | 80 | 2.3 | C=CCNC(=O)C(=O)C(CCC)NC(=O)[C@@H]1[C@@H]2[C@H](CN1C(=O)[C@@H](NC(=O)N[C@@H](CN1CCC(C)(C)CC1=O)C(C)(C)C)C(C)(C)C)C2(C)C (stereo not given in full) | 310
42 |  |  | C=CCNC(=O)C(=O)C(CCC)NC(=O)[C@@H]1[C@@H]2[C@H](CN1C(=O)[C@@H](NC(=O)N[C@@H](CN(C)C(=O)C(F)(F)F)C(C)(C)C)C(C)(C)C)C2(C)C (stereo not given in full) | 75
14 | 350 |  | CC(C)(C)NC(=O)N[C@H](C(=O)N1C[C@H]2[C@@H]([C@H]1C(=O)NC(CC1CCC1)C(=O)C(N)=O)C2(C)C)C(C)(C)C (stereo not given in full) [BOCEPREVIR] | 
15 | 70 | 3.52 | C=CCNC(=O)C(=O)C(CC1CC1)NC(=O)[C@@H]1[C@@H]2[C@H](CN1C(=O)[C@@H](NC(=O)N[C@@H](CN1CCC(C)(C)CC1=O)C(C)(C)C)C(C)(C)C)C2(C)C (stereo not given in full) | 870
28 | 70 | 1 | C=CCNC(=O)C(=O)C(CC1CCC1)NC(=O)[C@@H]1[C@@H]2[C@H](CN1C(=O)[C@@H](NC(=O)N[C@@H](CN1CCC(C)(C)CC1=O)C(C)(C)C)C(C)(C)C)C2(C)C (stereo not given in full) | 1900
1500 |  |  | C=CCNC(=O)C(=O)C(CCC)NC(=O)[C@@H]1[C@@H]2[C@H](CN1C(=O)[C@@H](NC(=O)OC(C)(C)C)C(C)(C)C)C2(C)C (stereo not given in full) | 
1.9 | 45 | 2.09 | C=CCNC(=O)C(=O)C(CCC)NC(=O)[C@@H]1[C@@H]2[C@H](CN1C(=O)[C@@H](NC(=O)N[C@@H](CN1CCC(C)(C)CC1=O)C(C)(C)C)C1CCCCC1)C2(C)C (stereo not given in full) | 60
14 | 350 |  | C=CCNC(=O)C(=O)C(CCC)NC(=O)[C@@H]1[C@@H]2[C@H](CN1C(=O)[C@@H](NC(=O)N[C@@H](CN1CCCCC1=O)C(C)(C)C)C(C)(C)C)C2(C)C (stereo not given in full) | 320
40 |  |  | C=CCNC(=O)C(=O)C(CCC)NC(=O)[C@@H]1[C@@H]2[C@H](CN1C(=O)[C@@H](NC(=O)N[C@@H](CN1Cc3ccccc3C1=O)C(C)(C)C)C(C)(C)C)C2(C)C (stereo not given in full) | 1500
37 | 700 |  | C=CCNC(=O)C(=O)C(CCC)NC(=O)[C@@H]1[C@@H]2[C@H](CN1C(=O)[C@@H](NC(=O)N[C@@H](CN1CCCC1=O)C(C)(C)C)C(C)(C)C)C2(C)C (stereo not given in full) | 60
37 | 550 |  | C=CCNC(=O)C(=O)C(CCC)NC(=O)[C@@H]1[C@@H]2[C@H](CN1C(=O)[C@@H](NC(=O)N[C@@H](CN(C)C(C)=O)C(C)(C)C)C(C)(C)C)C2(C)C (stereo not given in full) | 150
9 | 80 | 0.68 | C=CCNC(=O)C(=O)C(CCC)NC(=O)[C@@H]1[C@@H]2[C@H](CN1C(=O)[C@@H](NC(=O)N[C@@H](CN1CCCCC1=O)C(C)(C)C)C1Cc3ccccc3C1)C2(C)C (stereo not given in full) | 18
8 | 60 | 0.53 | C=CCNC(=O)C(=O)C(CCC)NC(=O)[C@@H]1[C@@H]2[C@H](CN1C(=O)[C@@H](NC(=O)N[C@@H](CN1CC3CCC(C3)C1=O)C(C)(C)C)C(C)(C)C)C2(C)C (stereo not given in full) | 613
2300 |  |  | C=CCNC(=O)C(=O)C(CCC)NC(=O)[C@@H]1[C@@H]2[C@H](CN1C(=O)[C@@H](NC(=O)N[C@@H](CN1CCCCC1)C(C)(C)C)C(C)(C)C)C2(C)C (stereo not given in full) | 
19 | 200 |  | C=CCNC(=O)C(=O)C(CCC)NC(=O)[C@@H]1[C@@H]2[C@H](CN1C(=O)[C@@H](NC(=O)N[C@@H](CN1Cc3ccccc3CC1=O)C(C)(C)C)C(C)(C)C)C2(C)C (stereo not given in full) | 250
10 | 350 |  | C=CCNC(=O)C(=O)C(CCC)NC(=O)[C@@H]1[C@@H]2[C@H](CN1C(=O)[C@@H](NC(=O)N[C@@H](CN1CCCOC1=O)C(C)(C)C)C(C)(C)C)C2(C)C (stereo not given in full) | 100
7 | 80 |  | C=CCNC(=O)C(=O)C(CCC)NC(=O)[C@@H]1[C@@H]2[C@H](CN1C(=O)[C@@H](NC(=O)N[C@@H](CN1CCC(C)(C)CC1=O)C(C)(C)C)C1Cc3ccccc3C1)C2(C)C (stereo not given in full) | 110
1.8 | 110 | 0.7 | C=CCNC(=O)C(=O)C(CCC)NC(=O)[C@@H]1[C@@H]2[C@H](CN1C(=O)[C@@H](NC(=O)N[C@@H](CN1CCCCC1=O)C(C)(C)C)C1CCCCC1)C2(C)C (stereo not given in full) | 7
